Biological target: T1, Mubs5s6 (Lactiplantibacillus plantarum, UniProt F9UP14)
T1 construct: gene lp_1643; last two (fifth and sixth) C-terminal Mub domains with spacers of the about 2200-residue Lp_1643 protein; 366 residues, about 40 kDa; expressed in E. coli as MBP fusion (82 kDa), MBP tag removable with Factor Xa
Experiment: biochemical assay (details in supplement)
Type: binding
Conditions: site predicted by COACH (Asn42, Gly43, Asn224, Thr227, Asn228, Gln229); assay conditions only in supplement

T1 sequence (F9UP14 entry or part of it): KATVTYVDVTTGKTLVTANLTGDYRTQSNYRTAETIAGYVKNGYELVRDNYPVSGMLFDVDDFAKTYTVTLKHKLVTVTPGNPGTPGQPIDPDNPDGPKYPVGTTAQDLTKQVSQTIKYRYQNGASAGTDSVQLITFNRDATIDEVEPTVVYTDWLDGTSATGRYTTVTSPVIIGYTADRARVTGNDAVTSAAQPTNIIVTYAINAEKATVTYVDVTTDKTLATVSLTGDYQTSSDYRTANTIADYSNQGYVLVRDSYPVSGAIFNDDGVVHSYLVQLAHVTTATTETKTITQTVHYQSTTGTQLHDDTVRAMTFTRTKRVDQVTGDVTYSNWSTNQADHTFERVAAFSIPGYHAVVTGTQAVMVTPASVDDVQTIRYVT

SMILES: OC[C@H]1OC(O)[C@H](O)[C@@H](O)[C@@H]1O (stereo partly shown) [glucose]
- biochemical assay (details in supplement): We could also confirm the binding of calcium and glucose by Atomic Absorption Spectroscopy and biochemical assay

Source: paper PMC6155027, “Mechanistic insights into the host-microbe interaction and pathogen exclusion mediated by the Mucus-binding protein of Lactobacillus plantarum” (Scientific Reports, 2018)
